What follows are molecules tested against T1, human FAAH (Homo sapiens, UniProt O00519) (assay: Inhibition of human FAAH (AMC arachidonoyl amide fluorescence assay)). Conditions: inhibitor preincubated 30 minutes at room temperature; 20 μM AMC arachidonoyl amide; 4 hours; read-out: Activity (Ki, inhibitors of human FAAH).
T1 construct: host or cells: COS-7 cells, transient transfection; 13,000 g membrane fraction solubilised in 1% Triton X-100
T1 sequence (O00519 1-579): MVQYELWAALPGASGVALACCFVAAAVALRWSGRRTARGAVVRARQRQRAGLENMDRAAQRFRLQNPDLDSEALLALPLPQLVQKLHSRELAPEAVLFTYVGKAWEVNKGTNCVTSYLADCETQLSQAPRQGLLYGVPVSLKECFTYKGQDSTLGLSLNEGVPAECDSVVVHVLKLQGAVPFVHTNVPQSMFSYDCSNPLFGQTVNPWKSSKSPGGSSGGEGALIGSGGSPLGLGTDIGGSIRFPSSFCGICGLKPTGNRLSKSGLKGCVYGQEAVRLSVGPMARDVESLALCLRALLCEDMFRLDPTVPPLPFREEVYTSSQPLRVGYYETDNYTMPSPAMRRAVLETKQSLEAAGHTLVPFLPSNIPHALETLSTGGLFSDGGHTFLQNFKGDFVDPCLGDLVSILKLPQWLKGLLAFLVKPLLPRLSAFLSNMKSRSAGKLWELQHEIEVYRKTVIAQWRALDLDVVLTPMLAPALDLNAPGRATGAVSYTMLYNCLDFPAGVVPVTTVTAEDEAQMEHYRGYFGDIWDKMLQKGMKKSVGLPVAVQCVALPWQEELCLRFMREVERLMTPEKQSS
Type: biochemical
Procedure: Human FAAH Preparation: COS-7 cells were split the day before, 1:5 into 150 mm x […] cell culture dishes (Corning Inc., Cat. No. 430599). Transient transfection took place at 30-40% confluency according to FuGENE 6 Transfection Reagent (Roche, Cat. No. 11814 443 001).
Transfection Procedure: The FuGENE transfection 6 reagent (45 uL) was added to 1410 μL of media (DMEM, serum free without pen/strep) in a 15 mL conical tube and incubated at room temp for 5 minutes, followed by the addition of FAAH plasmid DNA (15 μg) (OriGene Cat. No. TC119221, Genbank Accession No. NM_001441.1, 0.67 ug/uL) and a further incubation of 15 minutes at room temperature. The resulting solution was added into one dish of 30-40% confluent COS-7 cells in a drop-wise manner. The COS-7 cell dish was subsequently incubated for 48 hours. The cells are then harvested.
Harvest procedure: Media was aspirated from the dishes and the cells rinsed with 10 mL PBS. The PBS was removed and 3 mL of PBS added to the dish. The dish was scraped to resuspend the cells, and the subsequent cell suspension collected into a 15 mL conical tube. The cells were pelleted by centrifugation at 1200 rpm for 5 minutes in a bench top centrifuge. PBS was removed and the cell pellet snap frozen in liquid nitrogen and stored at −80° C.
COS-7 cells —FAAH purification: • (1) Fractionation: Frozen cell pellets from transient transfections were thawed on ice and resuspended in 12.5 mM Hepes pH 8.0, 100 mM NaCl, 1 mM EDTA (10 mL/0.2 g cell pellet). The pellets were dounce homogenized and then sonicated to produce cell extract. The cell extract was subsequently centrifuged at 1000 g to remove cellular debris. The pellet was discarded and the supernatant centrifuged at 13,000 g for 20 minutes. The pellet contained membrane bound FAAH. The supernatant was discarded and the pellet resolubilized. • (2) Re-solubilization: The fraction of interest, (13,000 g, membrane fraction) was re-suspended in 2.3 mL re-suspension buffer (20 mM Hepes pH 7.8, 10% v/v Glycerol, 1 mM EDTA, 1% Triton X-100) and the sample incubated on ice for 1 hour and then centrifuged to remove any particulate matter. The supernatant containing solubilized human FAAH was aliquoted and snap frozen in liquid nitrogen and stored at −80° C. until use. • (3) Characterization: Protein Concentration determined by Bradford assay. • SDS gel and Western blot to confirm presence of FAAH • FAAH activity assay • Km determination-96-well assay • Linear dependence—96-well assay • Standard compound Ki determination—384-well assay
Human FAAH assay; Experimental Protocol: A 0.1 mg/mL Human FAAH solution was made up in FAAH reaction buffer, and 24 ul pipeted into a 384 well plate. To this was added 1 μL of a 3 fold serially diluted inhibitor from a DMSO stock solution. The FAAH solution and inhibitor were incubated for 30 minutes at room temperature. The FAAH reaction was initiated by the addition of 25 μL of 40 μM AMC Arachidonoyl Amide in FAAH reaction buffer, yielding a final reaction human FAAH preparation concentration of 0.05 mg/ml and AMC-Arachidonoyl substrate concentration of 20 μM, reaction volume 50 μL. The reaction was allowed to proceed for 4 hours at room temperature. The reaction was stopped by the addition of 25 μL 12 μM a-ketoheterocycle (Cayman Chemicals, catalogue #10435). The microtiter plate was read in the envision plate reader.
The raw fluorescence was plotted on the y axis and the inhibitor concentration on the x axis to give a dose response inhibition curve. The data was fitted to a single site competitive inhibition equation, fixing the Km for the human enzyme to 12 μM and 9 μM respectively.

Row | SMILES | Ki [nM]
1 | Fc1ccc([C@H]2CC(Br)=NO2)cc1 (racemic) [I-2] | 100 to 1000
2 | Clc1ccc([C@H]2CC(Br)=NO2)cc1 (racemic) [I-3] | ≤ 100
3 | COc1ccc([C@H]2CC(Br)=NO2)cc1 (racemic) [I-6] | ≤ 100
4 | BrC1=NO[C@@H](c2ccc(-c3ccccc3)cc2)C1 (racemic) [I-9] | ≤ 100
5 | FC(F)(F)Oc1ccc(C2CC(Br)=NO2)cc1 (racemic) [I-14, 3-bromo-5-(4-(trifluoromethoxy)phenyl)-4,5-dihydroisoxazole] | ≤ 100
6 | CC(C)Oc1ccc([C@H]2CC(Br)=NO2)cc1 (racemic) [I-15] | ≤ 100
7 | BrC1=NO[C@@H](c2ccc3c(c2)OCO3)C1 (racemic) [I-16] | ≤ 100
8 | CCCCOc1ccc([C@H]2CC(Br)=NO2)cc1 (racemic) [I-20] | ≤ 100
9 | O=C(NCc1ccccc1)c1ccc([C@H]2CC(Br)=NO2)cc1 (racemic) [I-22] | 100 to 1000
10 | COc1ccc([C@H]2CC(Oc3cccnc3)=NO2)cc1 (racemic) [I-38] | 100 to 1000
11 | NC(=O)c1cncc(OC2=NOC(c3ccc(OC(F)(F)F)cc3)C2)c1 (racemic) [I-53] | 100 to 1000
12 | CNC(=O)c1cncc(OC2=NOC(c3ccc(OC(F)(F)F)cc3)C2)c1 (racemic) [I-54] | ≤ 100
13 | O=C(O)c1cncc(OC2=NOC(c3ccc(OC(F)(F)F)cc3)C2)c1 (racemic) [I-55] | ≥ 1000
14 | FC(F)(F)c1ccc(OC2=NOC(c3ccc(Oc4ccccc4)cc3)C2)cn1 (racemic) [I-56] | ≤ 100
15 | c1ccc(Oc2ccc(C3CC(Oc4cnc5cc[nH]c5c4)=NO3)cc2)cc1 (racemic) [I-57] | ≤ 100
16 | N#Cc1cccc(OC2=NOC(c3ccc(Oc4ccccc4)cc3)C2)c1 (racemic) [I-58] | 100 to 1000
17 | Fc1ccccc1OC1=NOC(c2ccc(Oc3ccccc3)cc2)C1 (racemic) [I-59] | 100 to 1000
18 | Fc1ccc(OC2=NOC(c3ccc(Oc4ccccc4)cc3)C2)cc1C(F)(F)F (racemic) [I-60] | ≥ 1000
19 | COC(=O)c1cccc(OC2=NOC(c3ccc(Oc4ccccc4)cc3)C2)c1 (racemic) [I-61] | ≤ 100

Row | SMILES | Ki [nM]
20 | COC(=O)c1ccc(OC2=NOC(c3ccc(Oc4ccccc4)cc3)C2)cc1 (racemic) [I-62] | ≤ 100
21 | N[S@SP3](=O)(=O)c1cccc(OC2=NOC(c3ccc(Oc4ccccc4)cc3)C2)c1 (racemic) [I-63] | ≥ 1000
22 | N[S@SP3](=O)(=O)c1cccc(OC2=NOC(c3ccc(Oc4ccccc4)cc3)C2)c1 (racemic) [I-64] | ≥ 1000
23 | COc1cncc(OC2=NOC(c3ccc(Oc4ccccc4)cc3)C2)c1 (racemic) [I-65] | ≤ 100
24 | COc1ncc(OC2=NOC(c3ccc(Oc4ccccc4)cc3)C2)cn1 (racemic) [I-66] | ≤ 100
25 | COC(=O)c1ccc(OC2=NOC(c3ccc(Oc4ccccc4)cc3)C2)cn1 (racemic) [I-67] | ≤ 100
26 | c1ccc(Oc2ccc(C3CC(Oc4cnc5[nH]ccc5c4)=NO3)cc2)cc1 (racemic) [I-68] | ≤ 100
27 | c1ccc(Oc2ccc(C3CC(Oc4cnc5ccoc5c4)=NO3)cc2)cc1 (racemic) [I-69] | ≤ 100
28 | FC(F)(F)Oc1ccc(C2CC(Oc3cccnc3)=NO2)cc1 (racemic) [I-70] | ≤ 100
29 | FC(F)(F)Oc1ccc(C2CC(Oc3cncc(Br)c3)=NO2)cc1 (racemic) [I-71] | ≤ 100
30 | FC(F)(F)Oc1ccc(C2CC(Oc3cncc(-c4ccccc4)c3)=NO2)cc1 (racemic) [I-72] | 100 to 1000
31 | NC(=O)c1cccc(-c2cncc(OC3=NOC(c4ccc(OC(F)(F)F)cc4)C3)c2)c1 (racemic) [I-73] | ≤ 100
32 | COC(=O)c1ccc(C2CC(Br)=NO2)cc1 (racemic) [I-74] | ≤ 100
33 | CC1(c2ccc(OC(F)(F)F)cc2)CC(Br)=NO1 (racemic) [I-75] | ≤ 100
34 | CC1(c2ccc(Oc3ccccc3)cc2)CC(Br)=NO1 (racemic) [I-76] | ≤ 100
35 | COc1ccc([C@@H]2ON=C(Br)[C@H]2C)cc1 (racemic) [I-77] | ≥ 1000
36 | COC(=O)c1cccc(-c2ccc(OC3=NOC(c4ccc(OC(F)(F)F)cc4)C3)cn2)c1 (racemic) [I-83] | 100 to 1000
37 | CCOC(=O)c1cccc(-c2ccc(OC3=NOC(c4ccc(OC(F)(F)F)cc4)C3)cn2)c1 (racemic) [I-84] | 100 to 1000
38 | O=C(O)c1cccc(-c2ccc(OC3=NOC(c4ccc(OC(F)(F)F)cc4)C3)cn2)c1 (racemic) [I-85] | 100 to 1000

Row | SMILES | Ki [nM]
39 | FC(F)(F)Oc1ccc(C2CC(Oc3ccc(-c4ccccc4)nc3)=NO2)cc1 (racemic) [I-86] | 100 to 1000
40 | c1cncc(OC2=NOC(c3ccc(Oc4cccnc4)cc3)C2)c1 (racemic) [I-87] | ≤ 100
41 | CC1(c2ccc(OC(F)(F)F)cc2)CC(Oc2cccnc2)=NO1 (racemic) [I-88] | 100 to 1000
42 | CC1(c2ccc(Oc3ccccc3)cc2)CC(Oc2cccnc2)=NO1 (racemic) [I-89] | ≤ 100
43 | NS(=O)(=O)c1ccc(OC2=NOC(c3ccc(Oc4ccccc4)cc3)C2)cc1 (racemic) [I-90] | ≤ 100
44 | C[C@@H]1C(Oc2cccnc2)=NO[C@H]1c1ccc(Oc2ccccc2)cc1 (racemic) [I-91] | ≥ 1000
45 | CC(C)(C)OC(=O)Nc1ccc(OC2=NOC(c3ccc(Oc4ccccc4)cc3)C2)cn1 (racemic) [I-92] | ≥ 1000
46 | CC(=O)Nc1ccc(OC2=NOC(c3ccc(Oc4ccccc4)cc3)C2)cn1 (racemic) [I-94] | ≤ 100
47 | CCC1(c2ccc(Oc3ccccc3)cc2)CC(Br)=NO1 (racemic) [I-95] | ≤ 100
48 | COC(=O)c1ccc(OC2=NOC(c3ccc(OC(F)(F)F)cc3)C2)cn1 (racemic) [I-96] | ≤ 100
49 | O=C(O)c1ccc(OC2=NOC(c3ccc(OC(F)(F)F)cc3)C2)cn1 (racemic) [I-97] | ≤ 100
50 | COC(=O)CCc1ccc(OC2=NOC(c3ccc(Oc4ccccc4)cc3)C2)cn1 (racemic) [I-98] | ≤ 100
51 | O=C(O)CCc1ccc(OC2=NOC(c3ccc(Oc4ccccc4)cc3)C2)cn1 (racemic) [I-99] | ≤ 100
52 | NC(=O)CCc1ccc(OC2=NOC(c3ccc(Oc4ccccc4)cc3)C2)cn1 (racemic) [I-100] | ≤ 100
53 | c1ccc(-c2ccc([C@H]3CC(Oc4cccnc4)=NO3)cc2)cc1 (racemic) [I-101] | ≤ 100
54 | C[C@]1(c2ccc(-c3ccccc3)cc2)CC(Br)=NO1 (racemic) [I-102] | ≤ 100
55 | c1ccc(-c2ccc([C@H]3CC(Oc4cncnc4)=NO3)cc2)cc1 (racemic) [I-103] | ≤ 100
56 | C[C@]1(c2ccc(-c3ccccc3)cc2)CC(Oc2cncnc2)=NO1 (racemic) [I-104] | ≤ 100
57 | COC(=O)CNC(=O)c1ccc(OC2=NOC(c3ccc(OC(F)(F)F)cc3)C2)cn1 (racemic) [I-105] | ≤ 100
